The source of these data is patent US9873704B2, “Heterocyclic compounds and their uses” (Amgen Inc., priority 2009, dated 2018).

In the experiment the target is T1, PI3Kδ (Homo sapiens, UniProt O00329).
T1 construct: Full length p110 subunits of PI3k α, β and δ, N-terminally labeled with polyHis tag; polyHis (N); made in house; host or cells: Sf9 insect cells (baculovirus)
Nature of the experiment: PI3Kδ Alphascreen assay. It counts as biochemical. Here is the method:
Full length p110 subunits of PI3k α, β and δ, N-terminally labeled with polyHis tag, were coexpressed with p85 with Baculo virus expression vectors in sf9 insect cells. P110/p85 heterodimers were purified by sequential Ni-NTA, Q-HP, Superdex-100 chromatography. Purified α, β and δ isozymes were stored at −20° C. in 20 mM Tris, pH 8, 0.2M NaCl, 50% glycerol, 5 mM DTT, 2 mM Na cholate. […] The γ isozyme was purified by sequential Ni-NTA, Superdex-200, Q-HP chromatography. The γ isozyme was stored frozen at −80° C. in NaH2PO4, pH 8, 0.2M NaCl, 1% ethylene glycol, 2 mM β-mercaptoethanol.
A PI3K Alphascreen® assay (PerkinElmer, Waltham, Mass.) was used to measure the activity of a panel of four phosphoinositide 3-kinases: PI3Kα, PI3Kβ, PI3Kγ, and PI3Kδ. Enzyme reaction buffer was prepared using sterile water (Baxter, Deerfield, Ill.) and 50 mM Tris HCl pH 7, 14 mM MgCl2, 2 mM sodium cholate, and 100 mM NaCl. 2 mM DTT was added fresh the day of the experiment. The Alphascreen buffer was made using sterile water and 10 mM Tris HCl pH 7.5, 150 mM NaCl, 0.10% Tween 20, and 30 mM EDTA. 1 mM DTT was added fresh the day of the experiment. Compound source plates used for this assay were 384-well Greiner clear polypropylene plates containing test compounds at 5 mM and diluted 1:2 over 22 concentrations. Columns 23 and 24 contained only DMSO as these wells comprised the positive and negative controls, respectively. Source plates were replicated by transferring 0.5 uL per well into 384-well Optiplates (PerkinElmer, Waltham, Mass.).
Each PI3K isoform was diluted in enzyme reaction buffer to 2× working stocks. […] PI(4,5)P2 (Echelon Biosciences, Salt Lake City, Utah) was diluted to 10 μM and ATP was diluted to 20 μM. This 2× stock was used in the assays for PI3Kα and PI3Kβ. For assay of PI3Kγ and PI3Kδ, PI(4,5)P2 was diluted to 10 μM and ATP was diluted to 8 μM to prepare a similar 2× working stock. Alphascreen reaction solutions were made using beads from the anti-GST Alphascreen kit (PerkinElmer, Waltham, Mass.). Two 4× working stocks of the Alphascreen reagents were made in Alphascreen reaction buffer. In one stock, biotinylated-IP4 (Echelon Biosciences, Salt Lake City, Utah) was diluted to 40 nM and streptavidin-donor beads were diluted to 80 μg/mL. In the second stock, PIP3-binding protein (Echelon Biosciences, Salt Lake City, Utah) was diluted to 40 nM and anti-GST-acceptor beads were diluted to 80 μg/mL.
10 μL/well of the appropriate substrate 2× stock (containing 20 μM ATP for the PI3Kα and β assays and containing 8 μM ATP for the PI3Kγ and δ assays) was then added to Columns 1-24 of all plates. Plates were then incubated at room temperature for 20 minutes. In the dark, 10 μL/well of the donor bead solution was added to columns 1-24 of the plates to quench the enzyme reaction. The plates were incubated at room temperature for 30 minutes. Still in the dark, 10 μL/well of the acceptor bead solution was added to columns 1-24 of the plates. The plates were then incubated in the dark for 1.5 hours. The plates were read on an Envision multimode Plate Reader (PerkinElmer, Waltham, Mass.) using a 680 nm excitation filter and a 520-620 nm emission filter.

Where two headings read alike, the source gives them in different places.

T1 sequence (O00329 whole entry): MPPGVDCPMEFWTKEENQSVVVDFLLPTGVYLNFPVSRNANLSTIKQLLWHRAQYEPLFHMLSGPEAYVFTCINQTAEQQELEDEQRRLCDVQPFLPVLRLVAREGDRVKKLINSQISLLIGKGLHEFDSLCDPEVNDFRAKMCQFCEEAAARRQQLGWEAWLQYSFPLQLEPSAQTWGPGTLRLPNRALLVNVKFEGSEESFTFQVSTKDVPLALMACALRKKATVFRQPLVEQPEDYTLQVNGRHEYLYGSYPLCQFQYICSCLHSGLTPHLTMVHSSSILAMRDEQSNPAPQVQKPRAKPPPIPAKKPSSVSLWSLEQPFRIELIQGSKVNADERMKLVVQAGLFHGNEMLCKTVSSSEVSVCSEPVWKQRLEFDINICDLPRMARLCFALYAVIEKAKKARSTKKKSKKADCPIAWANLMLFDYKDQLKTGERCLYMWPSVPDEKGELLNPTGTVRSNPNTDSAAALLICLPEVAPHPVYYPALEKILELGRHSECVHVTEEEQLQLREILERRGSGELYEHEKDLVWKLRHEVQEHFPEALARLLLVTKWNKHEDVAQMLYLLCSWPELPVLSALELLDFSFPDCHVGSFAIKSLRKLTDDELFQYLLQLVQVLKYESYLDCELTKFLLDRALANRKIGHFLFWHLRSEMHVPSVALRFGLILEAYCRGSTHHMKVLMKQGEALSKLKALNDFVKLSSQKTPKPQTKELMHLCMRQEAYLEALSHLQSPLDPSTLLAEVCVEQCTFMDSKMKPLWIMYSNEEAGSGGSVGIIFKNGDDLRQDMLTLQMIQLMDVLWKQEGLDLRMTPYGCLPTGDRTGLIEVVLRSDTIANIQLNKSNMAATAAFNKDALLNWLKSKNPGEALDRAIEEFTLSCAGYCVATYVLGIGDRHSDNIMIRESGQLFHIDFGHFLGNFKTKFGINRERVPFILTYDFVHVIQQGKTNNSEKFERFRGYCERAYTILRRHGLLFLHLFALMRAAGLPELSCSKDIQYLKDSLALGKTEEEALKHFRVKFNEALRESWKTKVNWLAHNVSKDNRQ
T1 sequence (P27986 whole entry partner): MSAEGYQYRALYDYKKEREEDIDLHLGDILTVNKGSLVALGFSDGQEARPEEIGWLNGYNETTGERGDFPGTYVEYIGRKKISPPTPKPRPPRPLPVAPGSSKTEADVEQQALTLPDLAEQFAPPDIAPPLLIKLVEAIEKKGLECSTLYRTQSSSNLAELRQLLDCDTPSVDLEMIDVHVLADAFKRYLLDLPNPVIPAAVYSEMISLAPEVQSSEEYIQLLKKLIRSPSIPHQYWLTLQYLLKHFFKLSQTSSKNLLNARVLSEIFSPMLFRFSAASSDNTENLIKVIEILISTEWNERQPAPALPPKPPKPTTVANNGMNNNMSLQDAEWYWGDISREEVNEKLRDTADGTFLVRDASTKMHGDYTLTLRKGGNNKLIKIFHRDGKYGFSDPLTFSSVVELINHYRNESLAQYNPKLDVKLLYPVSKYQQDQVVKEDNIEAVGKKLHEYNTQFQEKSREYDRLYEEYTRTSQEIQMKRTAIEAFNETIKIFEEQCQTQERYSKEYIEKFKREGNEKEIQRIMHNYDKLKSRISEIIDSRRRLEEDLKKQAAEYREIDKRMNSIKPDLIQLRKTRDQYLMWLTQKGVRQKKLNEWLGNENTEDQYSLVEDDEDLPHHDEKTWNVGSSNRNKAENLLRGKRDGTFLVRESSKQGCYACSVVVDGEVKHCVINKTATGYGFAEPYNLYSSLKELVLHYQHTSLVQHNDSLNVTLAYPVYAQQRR

As a reminder, the Ki is a measure of affinity in units of concentration, obtained from inhibition or displacement. As to `CC(Nc1ncnc(N)c1C#N)c1nc2ccncc2cc1-c1ccccn1` (racemic) [4-Amino-6-(((1S, 1R)-1-(3-(2-pyridinyl)-1,6-naphthyridin-2-yl)ethyl)amino)-5-pyrimidinecarbonitrile], the Ki worked out at 470 nM.
With `CC(Nc1ncnc(N)c1C#N)c1nc2ncccc2cc1-c1ccccn1` (racemic) [4-Amino-6-(((1S, 1R)-1-(3-(2-pyridinyl)-1,8-naphthyridin-2-yl)ethyl)amino)-5-pyrimidinecarbonitrile], the affinity corresponds to a Ki of 225 nM.
For the compound `CC(Nc1ncnc2[nH]cnc12)c1nc2ccc(F)cc2cc1-c1ccccn1` (racemic) [N-(1-(6-Fluoro-3-(pyridin-2-yl)quinolin-2-yl)ethyl)-9H-purin-6-amine], the inhibitory constant (Ki) is 21.3 nM.
Still for that read-out and setting: under `C[C@@H](Nc1ncnc(N)c1C#N)c1nc2ccc(F)cc2c(C(=O)N(C)C)c1-c1ccccn1` (stereo in doubt) [2-(1-((6-Amino-5-cyano-4-pyrimidinyl)amino)ethyl)-6-fluoro-N,N-dimethyl-3-(2-pyridinyl)-4-quinolinecarboxamide] stands 7.77 nM.
In the case of `CC(Nc1ncnc(N)c1C#N)c1nc2ccc(F)cc2c([S+]([O-])CCO)c1-c1ccccc1` (stereo in doubt) [4-Amino-6-(1-(6-fluoro-4-((R)-2-hydroxyethylsulfinyl)-3-phenylquinolin-2-yl)ethylamino)pyrimidine-5-carbonitrile], the affinity, expressed as Ki, was 2.48 nM.
`CC(Nc1ncnc(N)c1C#N)c1nc2ccc(F)cc2c(C(=O)O)c1-c1ccccn1` (centres unmarked) [2-1-((6-Amino-5-cyano-4-pyrimidinyl)amino)ethyl)-6-fluoro-3-(2-pyridinyl)-4-quinolinecarboxylic acid] displayed an inhibition constant (Ki) of 119 nM.
The same measure, in the same setting: under `CC(Nc1ncnc(N)c1C#N)c1nc2ccc(F)cc2c(C(=O)O)c1-c1ccccc1` (centres unmarked) [2-(1-(6-Amino-5-cyanopyrimidin-4-ylamino)ethyl)-6-fluoro-3-phenylquinoline-4-carboxylic acid] stands 74.2 nM; under `CC(Nc1ncnc(N)c1C#N)c1nc2ccc(F)cc2c(C(=O)NCC2CC2)c1-c1ccccc1` (centres unmarked) [2-(1-(6-Amino-5-cyanopyrimidin-4-ylamino)ethyl)-N-(cyclopropylmethyl)-6-fluoro-3-phenylquinoline-4-carboxamide], 5.15 nM; under `CC(Nc1ncnc(N)c1C(N)=O)c1nc2ccc(F)cc2c(C(=O)O)c1-c1ccccc1` (centres unmarked) [2-(1-(6-amino-5-carbamoylpyrimidin-4-ylamino)ethyl)-6-fluoro-3-phenylquinoline-4-carboxylic acid], 7.16 nM.
In the case of `CC(Nc1ncnc(N)c1C#N)c1nc2ccc(F)cc2c(C(=O)NCCN2CCOCC2)c1-c1ccccc1` (centres unmarked) [2-(1-((6-Amino-5-cyano-4-pyrimidinyl)amino)ethyl)-6-fluoro-N-(2-(4-morpholinyl)ethyl)-3-phenyl-4-quinolinecarboxamide], the Ki worked out at 1.02 nM.
The same measure, in the same setting: as for `C[C@@H](Nc1ncnc(N)c1C#N)c1nc2ccc(F)cc2c(C#N)c1-c1ccccc1` [2-((1R)-1-((6-Amino-5-cyano-4-pyrimidinyl)amino)ethyl)-6-fluoro-3-phenyl-4-quinolinecarbonitrile], the figure is 59.1 nM.
For the compound `C[C@@H](Nc1ncnc(N)c1C#N)c1nc2cccc(C#N)c2cc1-c1ccccn1` [2-((1R)-1-((6-amino-5-cyano-4-pyrimidinyl)amino)ethyl)-3-(2-pyridinyl)-5-quinolinecarbonitrile], the inhibition constant Ki is 2640 nM.
Still for that read-out and setting: as for `C[C@H](Nc1ncnc(N)c1C#N)c1nc2cccc(C#N)c2cc1-c1ccccn1` [2-((1S)-1-((6-Amino-5-cyano-4-pyrimidinyl)amino)ethyl)-3-(2-pyridinyl)-5-quinolinecarbonitrile], the figure is 14.1 nM; as for `C[C@@H](c1nc2ccc(F)cc2cc1-c1cncc(F)c1)n1nc(C#N)c2c(N)ncnc21` [4-Amino-1-((S)-1-(6-fluoro-3-(5-fluoropyridin-3-yl)quinolin-2-yl)ethyl)-1H-pyrazolo[3,4-d]pyrimidine-3-carbonitrile], 25 nM; as for `CC(Nc1ncnc(N)c1C#N)c1nc2ccc(F)cc2c(S(C)(=O)=O)c1-c1cc(F)cc(F)c1` (centres unmarked) [4-Amino-6-(1-(3-(3,5-difluorophenyl)-6-fluoro-4-(methylsulfonyl)quinolin-2-yl)ethylamino)pyrimidine-5-carbonitrile], 1.12 nM.
`CC(Nc1ncnc(N)c1C#N)c1nc2ccc(F)cc2c(N2CC(O)C2)c1-c1ccccn1` (centres unmarked) [4-Amino-6-(1-(6-fluoro-4-(3-hydroxyazetidin-1-yl)-3-(pyridin-2-yl)quinolin-2-yl)ethylamino)pyrimidine-5-carbonitrile] had an inhibition constant Ki of 1.78 nM.
On to `COCCNc1c(-c2ccccc2)c(C(C)Nc2ncnc(N)c2C#N)nc2ccc(F)cc12` (centres unmarked) [4-Amino-6-(1-(6-fluoro-4-((2-methoxyethyl)amino)-3-phenyl-2-quinolinyl)-ethyl)amino)-5-pyrimidinecarbonitrile], for which the inhibitory constant (Ki) came to 1.35 nM.
Still for that read-out and setting: under `CC(Nc1ncnc(N)c1C#N)c1nc2ccc(F)cc2c(CS(C)(=O)=O)c1-c1ccccc1` (centres unmarked) [4-Amino-6-(1-(6-fluoro-4-(methylsulfonylmethyl)-3-phenylquinolin-2-yl)-ethylamino)pyrimidine-5-carbonitrile] stands 1.38 nM; under `CC(Nc1ncnc(N)c1C#N)c1nc2ccc(F)cc2c(C(=O)N2CCCC2)c1-c1ccccc1` (centres unmarked) [4-Amino-6-((1-(6-fluoro-3-phenyl-4-(1-pyrrolidinylcarbonyl)-2-quinolinyl)-ethyl)amino)-5-pyrimidinecarbonitrile], 7.06 nM.
Same read-out and setting: as for `CC(Nc1ncnc(N)c1C#N)c1nc2ccc(F)cc2c(NCCS(C)(=O)=O)c1-c1ccccc1` (centres unmarked) [4-Amino-6-((1-(6-fluoro-4-((2-(methylsulfonyl)ethyl)amino)-3-phenyl-2-quinolinyl)ethyl)amino)-5-pyrimidinecarbonitrile], the figure is 0.463 nM; as for `CC(Nc1ncnc(N)c1C#N)c1nc2ccc(F)cc2c(NCCO)c1-c1ccccc1` (centres unmarked) [4-Amino-6-((1-(6-fluoro-4-((2-hydroxyethyl)amino)-3-phenyl-2-quinolinyl)ethyl)amino)-5-pyrimidinecarbonitrile], 0.396 nM; as for `COC1CN(C(=O)c2c(-c3ccccc3)c(C(C)Nc3ncnc(N)c3C#N)nc3ccc(F)cc23)C1` (centres unmarked) [4-Amino-6-((1-(6-fluoro-4-((3-methoxy-1-azetidinyl)carbonyl)-3-phenyl-2-quinolinyl)ethyl)amino)-5-pyrimidinecarbonitrile], 1.75 nM.
Compound `CC(Nc1ncnc(N)c1C#N)c1nc2ccc(F)cc2c(C(=O)N2CCN(C)CC2)c1-c1ccccc1` (centres unmarked) [4-Amino-6-((1-(6-fluoro-4-((4-methyl-1-piperazinyl)carbonyl)-3-phenyl-2-quinolinyl)ethyl)amino)-5-pyrimidinecarbonitrile] registered an inhibition constant Ki of 1.32 nM.
Compound `CC(Nc1ncnc(N)c1C#N)c1nc2ccc(F)cc2c(C(=O)N2CC[C@@H](O)C2)c1-c1ccccc1` (stereo partly drawn) [4-Amino-6-((1-(6-fluoro-4-(((3R)-3-hydroxy-1-pyrrolidinyl)carbonyl)-3-phenyl-2-quinolinyl)ethyl)amino)-5-pyrimidinecarbonitrile] registered a Ki of 25.6 nM. The same compound had an inhibition constant Ki (listed as 4-amino-6-(-1-(6-fluoro-4-(((3R)-3-hydroxy-1-pyrrolidinyl)-carbonyl)-3-phenyl-2))) of 5.07 nM.
Compound `N#Cc1c(N)ncnc1NCc1nc2cccc(F)c2cc1-c1cc(F)cc(F)c1` [4-Amino-6-((3-(3,5-difluorophenyl)-5-fluoroquinolin-2-yl)methylamino)pyrimidine-5-carbonitrile] registered an inhibition constant (Ki) of 246 nM.
